What was measured:
Format in all cases: physicochemical
[1] = Photostability of butylmethoxydibenzoylmethane in Support 1 formulations, xenon lamp exposure, UV spectrometry (Example 1); conditions: Support 1, 2% butylmethoxydibenzoylmethane, X = 0% by weight (no 1,1,1-tris(2-methyl-4-hydroxy-5-tert-butylphenyl)butane); ratio of exposed to unexposed OD
Description: The photostability of the dibenzoylmethane compound was evaluated on several formulations in which the amount of 1,1,1-tris(2-methyl-4-hydroxy-5-tert-butylphenyl)butane (X) was varied. The support common to these formulations was as follows: [table] For each formula, 3 test samples and 3 control samples were prepared. 2 mg/cm^2 of formula were deposited by spatula onto polymethyl methacrylate plates. […], to a Sun Test Heraus machine equipped with a xenon lamp and having as UV-A illumination: 3.02×10^−3 W/cm^2, and as UV-B illumination: 2.1×10^−4 W/cm^2, and the control plates were maintained for the same time and at the same temperature (38-40° C.) in darkness. After this time, the screening agents were extracted by immersing each plate in 50 g of ethanol and subjecting them to ultrasound for 15 minutes to ensure good extraction. The solutions obtained were analyzed by UV spectrometry. For each test formula, the amount of residual butylmethoxydibenzoylmethane after exposure is given as the ratio of its optical density (OD) in the exposed sample to its unexposed optical density (OD). […]

[2] = Photostability of butylmethoxydibenzoylmethane in Support 2 formulations containing octyltriazone, xenon lamp exposure, UV spectrometry (Example 2); conditions: Support 2, 0.5% butylmethoxydibenzoylmethane + 1.5% Uvinul T150, X = 0% by weight (no stabilizer)
Description: (§1) The photostability of octyltriazone in the presence of butylmethoxydibenzoylmethane was examined on several formulations in which the amount of 1,1,1-tris(2-methyl-4-hydroxy-5-tert-butylphenyl)butane (X) was varied. The support common to these formulations was as follows: [table] For each formula, 3 test samples and 3 control samples were prepared. 2 mg/cm^2 of formula were deposited by spatula onto polymethyl methacrylate plates. […], to a Sun Test Heraus machine equipped with a xenon lamp and having as UV-A illumination: 3.02×10^−3 W/cm^2, and as UV-B illumination: 2.1×10^−4 W/cm^2, and the control plates were maintained for the same time and at the same temperature (38-40° C.) in darkness. After this time, the screening agents were extracted by immersing each plate in 50 g of ethanol and subjecting them to ultrasound for 15 minutes to ensure good extraction. The solutions obtained were analyzed by UV spectrometry. For each test formula, the amount of residual butylmethoxydibenzoylmethane and the residual amount of octyltriazone after exposure is given as the ratio of each respective optical density (OD) in the exposed sample to the unexposed optical density (OD) corresponding to each filter. The machine was set at the maximum absorption corresponding to each filter: Butylmethoxydibenzoylmethane: λmax=358 nm

[3] = Photostability of octyltriazone in the presence of butylmethoxydibenzoylmethane in Support 2 formulations, xenon lamp exposure, UV spectrometry (Example 2); conditions: Support 2, 0.5% butylmethoxydibenzoylmethane + 1.5% Uvinul T150, X = 0% by weight (no stabilizer)
Description: as §1, with “Octyltriazone: λmax=312” for “Butylmethoxydibenzoylmethane: λmax=358”

Residual OD at 358 nm after 1 hour of UVA irradiation [1] [%]	Residual OD of the dibenzoylmethane at 358 nm after 1 hour of UVA irradiation [2] [%]	Residual OD of the triazine at 312 nm after 1 hour of UVA irradiation [3] [%]	SMILES
11 ± 1	32 ± 4	–	COc1ccc(C(=O)CC(=O)c2ccc(C(C)(C)C)cc2)cc1 [butylmethoxydibenzoylmethane, 4-(tert-butyl)-4′-methoxydibenzoylmethane]
–	–	87 ± 13	CCCCC(CC)COC(=O)c1ccc(Nc2nc(Nc3ccc(C(=O)OCC(CC)CCCC)cc3)nc(Nc3ccc(C(=O)OCC(CC)CCCC)cc3)n2)cc1 (stereo not drawn) [octyltriazone, 2,4,6-tris[p-(2′-ethylhexyl-1′-oxycarbonyl)anilino]-1,3,5-triazine]
